One data set deals with T1, Aβ aggregates (Homo sapiens, UniProt P05067).
T1 construct: from tissue; host or cells: brain sections of 12 month old heterozygous APP/PS1 mice
Put plainly: Autoradiography binding to Aβ aggregates in APP/PS1 mouse brain sections. The following applies: 1 nM radioligand, 12-month old heterozygous APP/PS1 mouse brain, compared with wild-type littermate. The source says:
Generation of tritiated compound 1, Method 1, for autoradiography studies was achieved by treating phenolic Compound 2 of Method 2 with tritiated methyl nosylate and a suitable base in N,N-dimethylformamide Purification by HPLC gave the tritiated compound in high radiochemical purity.
Brains were extracted from 12 month old heterozygous APP/PS1 animals (J. Neurochemistry 2009, 108, 1177-1186) and quickly frozen on dry ice in small weigh boats, wrapped with tin foil and stored in zip-lock bags at −80° C. for sectioning. Using a Leica CM3050S cryostat, 20 μm thick sections were generated representing the hippocampus (Bregma −1.34/−3.80) and the cortex/striatum (Bregma 1.54/−0.94). […]
10-[^3H]-methoxy-N-(pyridin-3-yl)-7-thia-2,5-diazatricyclo[6.4.0.0^2,6]dodeca-1(12),3,5,8,10-pentaene-4-carboxamide binding was determined in brain sections of a 12 month old APP/PS1 mouse and a WT littermate. […] Non-specific binding was determined for each radioligand in the presence of 1 μM of respective, cold ligand equivalent. […]
Quantification and Analysis: Signal intensity (cpm/mm^2) was measured for each brain section using Beta Vision+software. Specific (displaceable) binding, expressed in cpm/mm^2, was defined by the difference between total and non-specific binding and calculated as follows: (Total non-specific)/Total×100%. […]

In a further data set the target is T2, Q46 protein aggregates (Homo sapiens, UniProt P42858).
T2 construct: fused on or other part: An N-terminal GST tag, cleaved off with thrombin before the assay to trigger aggregation
The data set can be described thus: Q46 Radioligand Binding Assay (RBA), displacement of [^3H3]MK-3328. As to conditions: 10 nM [^3H3]MK-3328, 5 μM Q46 protein aggregates. The gist of the method: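 Aggregates were formed by thrombin cleavage of GST-Q46 for 16 h at 37° C. and pelleted. Aggregates (5 μM monomer equivalent) were preincubated 20 min with compound (1 μM–30 pM), then given 10 nM [3H]MK-3328 for 60 min at 37° C. in 150 mM NaCl, 50 mM Tris pH 8.0. Filter-bound counts were normalised to 3 μM unlabelled MK-3328 and fitted to a four-parameter IC50.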

Another data set deals with mHTT aggregates. Put plainly: Autoradiography of mHTT aggregates in R6/2 mouse brain. It is filed as binding. The following applies: 0.5 nM, 10 week old R6/2 mouse brain, compared with wild-type littermate.
The test system of data set [1] is NFT in sections of AD brain tissue. As to conditions: in vitro autoradiography and fluorescent staining; cited from earlier work.
Data set [2] relates to recombinant tau and amyloid β1-42 (Aβ1-42) aggregates. As to conditions: recombinant tau and Aβ1-42 aggregates; cited from earlier work.
Data set [3] relates to zQ175 knock-in mice (cortex, hippocampus, striatum, cerebellum). Put plainly: In vivo PET imaging in a knock-in model of Huntington's disease. On the set-up: species or system mouse. As to conditions: for % SUV: Mean ± SD. On the procedure:
^11C-labeled Compound 1 of Method 1 was evaluated for its ability to penetrate the central nervous system of mice following systemic administration, and its binding to the cerebellum, striatum, hippocampus, and cortex was quantitated. Three groups of animals were compared: wild-type, and mice that were heterozygous or homozygous for the zQ175 knock-in allele. (Menalled L. B. et al. Comprehensive behavioral and molecular characterization of a new knock-in mouse model of Huntington's disease: zQ175. PloS One 2012, 7, e49838). Forty-eight nine months old animals (16 WT, 16 heterozygous and 16 homozygous zQ175) were obtained from The Jackson Laboratory, USA. The animals were housed at the animal department of Karolinska University Hospital in a temperature (±21° C.) and humidity (±40%) controlled environment on a 12 hour light/dark cycle (lights on 7:00 AM) with access to food and water ad libitum. Animals were allowed at least one week to habituate to the animal department before the start of the imaging sessions. All experiments were conducted during the light phase of the cycle.
Animals were anesthetized with inhalation of isoflurane (4-5% isoflurane in oxygen). After induction of anesthesia, the isoflurane concentration was lowered to 1.5-2% in 50/50 air/oxygen and the animals were positioned in the scanner in a designated mouse bed. A cannula was inserted in the tail vein through which the radioligand was administered. A 63-minute dynamic PET scan was initiated immediately upon intravenous injection of the radioligand. Upon completion of the imaging sessions, each animal was returned to its cage.
The acquired list mode data, was reconstructed into 25 timeframes (63 minute scan=4×10 s, 4×20 s, 4×60 s, 7×180 s, 6×360 s). The image reconstruction was made with a fully 3-dimensional maximum-likelihood expectation maximization algorithm (MLEM) with 20 iterations, without scatter and attenuation correction. The reconstructed dynamic PET images were co-registered to an inbuilt mouse MRI template available in PMOD, which also incorporates volumes of interest (VOI's) sets (PMOD Technologies Ltd., Zurich, Switzerland). With the help of these VOI sets, decay corrected time activity curves (TAC) were generated. The regional brain uptake values were expressed as percent standard uptake value (% SUV), which normalizes for injected radioactivity and body weight. In addition, the area under the curve (AUC) was calculated. The selected regions of interest (ROI) were: cortex, hippocampus, striatum and cerebellum.
The average % SUV and AUC values for the ^11C-labeled Compound 1 of Method 1 in the four brain regions, for the three groups of mice, are shown in Table 23. […] FIG. 3 presents the AUC values for the three groups of animals in the four regions of the brain.

Consider 7 compounds from patent US10765764B2, “Probes for imaging huntingtin protein” (CHDI Foundation, Inc., priority 2015, dated 2020).

T2 sequence (P42858 with tags, fused parts or gaps with the stated changes, form open): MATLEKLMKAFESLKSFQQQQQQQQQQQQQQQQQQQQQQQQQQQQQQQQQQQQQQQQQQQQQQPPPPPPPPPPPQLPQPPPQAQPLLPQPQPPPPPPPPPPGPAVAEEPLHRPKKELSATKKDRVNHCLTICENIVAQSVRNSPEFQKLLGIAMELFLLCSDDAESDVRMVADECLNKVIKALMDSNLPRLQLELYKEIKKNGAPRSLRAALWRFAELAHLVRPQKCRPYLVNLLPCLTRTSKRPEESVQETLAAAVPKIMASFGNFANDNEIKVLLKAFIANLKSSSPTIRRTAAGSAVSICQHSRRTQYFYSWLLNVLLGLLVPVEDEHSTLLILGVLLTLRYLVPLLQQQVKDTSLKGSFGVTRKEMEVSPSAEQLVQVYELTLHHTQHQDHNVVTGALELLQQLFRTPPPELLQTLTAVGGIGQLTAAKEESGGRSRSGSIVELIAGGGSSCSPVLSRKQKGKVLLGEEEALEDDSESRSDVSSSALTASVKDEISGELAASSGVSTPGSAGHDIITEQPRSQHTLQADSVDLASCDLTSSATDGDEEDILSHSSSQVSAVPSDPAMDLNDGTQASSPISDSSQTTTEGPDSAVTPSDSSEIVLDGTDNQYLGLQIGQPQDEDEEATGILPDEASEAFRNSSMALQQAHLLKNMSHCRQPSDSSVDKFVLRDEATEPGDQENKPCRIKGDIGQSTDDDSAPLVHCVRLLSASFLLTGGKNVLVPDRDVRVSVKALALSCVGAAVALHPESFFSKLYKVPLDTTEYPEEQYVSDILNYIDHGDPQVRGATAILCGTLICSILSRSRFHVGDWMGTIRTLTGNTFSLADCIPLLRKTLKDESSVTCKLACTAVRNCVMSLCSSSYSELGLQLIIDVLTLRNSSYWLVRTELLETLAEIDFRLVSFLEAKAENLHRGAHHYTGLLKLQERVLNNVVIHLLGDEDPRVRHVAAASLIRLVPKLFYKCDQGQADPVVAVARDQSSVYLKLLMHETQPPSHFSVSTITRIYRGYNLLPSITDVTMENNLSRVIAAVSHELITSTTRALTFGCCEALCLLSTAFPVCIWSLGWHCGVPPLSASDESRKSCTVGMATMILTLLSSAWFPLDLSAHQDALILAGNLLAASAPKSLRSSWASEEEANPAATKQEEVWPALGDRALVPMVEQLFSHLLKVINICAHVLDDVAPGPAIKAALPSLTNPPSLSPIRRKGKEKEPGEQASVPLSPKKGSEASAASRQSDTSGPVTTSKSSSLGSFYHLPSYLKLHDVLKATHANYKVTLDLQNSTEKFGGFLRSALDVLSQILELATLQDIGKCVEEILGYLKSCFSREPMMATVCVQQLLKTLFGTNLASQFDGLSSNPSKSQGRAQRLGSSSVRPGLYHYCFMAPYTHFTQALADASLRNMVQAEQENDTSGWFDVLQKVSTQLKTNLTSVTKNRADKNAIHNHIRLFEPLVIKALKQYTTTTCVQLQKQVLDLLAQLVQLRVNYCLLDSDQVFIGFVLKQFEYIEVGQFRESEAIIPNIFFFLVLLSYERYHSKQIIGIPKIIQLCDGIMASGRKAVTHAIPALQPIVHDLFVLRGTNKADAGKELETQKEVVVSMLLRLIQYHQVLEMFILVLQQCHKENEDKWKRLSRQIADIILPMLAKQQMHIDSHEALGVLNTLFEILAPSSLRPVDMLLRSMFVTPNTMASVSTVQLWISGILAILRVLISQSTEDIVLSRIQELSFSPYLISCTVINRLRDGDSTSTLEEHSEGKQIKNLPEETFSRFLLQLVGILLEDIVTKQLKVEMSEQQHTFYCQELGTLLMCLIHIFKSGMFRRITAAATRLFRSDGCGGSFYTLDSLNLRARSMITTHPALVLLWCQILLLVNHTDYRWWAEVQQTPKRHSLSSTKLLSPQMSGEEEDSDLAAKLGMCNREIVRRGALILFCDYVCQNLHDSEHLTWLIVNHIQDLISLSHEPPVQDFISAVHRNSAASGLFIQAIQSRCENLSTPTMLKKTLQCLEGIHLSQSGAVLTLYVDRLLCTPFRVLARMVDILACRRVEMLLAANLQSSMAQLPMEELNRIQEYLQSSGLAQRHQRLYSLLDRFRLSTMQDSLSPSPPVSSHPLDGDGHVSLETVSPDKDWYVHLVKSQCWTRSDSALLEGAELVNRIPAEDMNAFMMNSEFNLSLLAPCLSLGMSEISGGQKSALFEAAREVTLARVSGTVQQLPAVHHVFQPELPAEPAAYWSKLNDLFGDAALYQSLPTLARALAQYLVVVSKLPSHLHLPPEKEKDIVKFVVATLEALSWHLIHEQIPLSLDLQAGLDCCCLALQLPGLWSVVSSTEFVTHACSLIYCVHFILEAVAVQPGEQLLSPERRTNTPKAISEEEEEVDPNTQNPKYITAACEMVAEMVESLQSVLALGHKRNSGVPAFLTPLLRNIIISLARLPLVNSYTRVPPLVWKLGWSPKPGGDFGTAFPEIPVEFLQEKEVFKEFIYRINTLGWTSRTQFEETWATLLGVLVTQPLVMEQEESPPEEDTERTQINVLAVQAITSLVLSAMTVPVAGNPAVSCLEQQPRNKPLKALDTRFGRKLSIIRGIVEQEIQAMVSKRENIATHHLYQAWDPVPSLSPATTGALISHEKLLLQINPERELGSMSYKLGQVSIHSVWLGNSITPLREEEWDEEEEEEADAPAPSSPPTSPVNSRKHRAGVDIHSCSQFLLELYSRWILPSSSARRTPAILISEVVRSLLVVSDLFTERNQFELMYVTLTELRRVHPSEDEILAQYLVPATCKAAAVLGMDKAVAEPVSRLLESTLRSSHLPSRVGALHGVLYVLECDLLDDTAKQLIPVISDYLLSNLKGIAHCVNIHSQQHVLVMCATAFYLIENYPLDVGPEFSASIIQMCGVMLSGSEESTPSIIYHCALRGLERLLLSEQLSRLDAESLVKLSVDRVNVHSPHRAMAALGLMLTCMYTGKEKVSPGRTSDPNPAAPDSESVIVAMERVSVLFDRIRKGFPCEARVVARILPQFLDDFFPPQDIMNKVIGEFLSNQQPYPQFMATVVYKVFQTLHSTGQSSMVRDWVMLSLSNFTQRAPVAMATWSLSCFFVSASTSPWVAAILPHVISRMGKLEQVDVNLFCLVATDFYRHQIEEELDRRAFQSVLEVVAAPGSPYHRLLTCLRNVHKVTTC
T1 sequence (P05067 672-713 limits assumed): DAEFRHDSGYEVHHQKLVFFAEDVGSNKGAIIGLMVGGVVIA

As for `[3H]C([3H])([3H])Oc1ccc2c(c1)sc1nc(C(=O)Nc3cccnc3)cn12` [10-[^3H]-methoxy-N-(pyridin-3-yl)-7-thia-2,5-diazatricyclo[6.4.0.0^2,6]dodeca-1(12),3,5,8,10-pentaene-4-carboxamide], the “visibility of Aβ aggregates in brain sections” value on Aβ aggregates is listed as “Aβ aggregates are visible”.

A word on the IC50: it is the concentration at which inhibition is half-maximal. At Q46 protein aggregates, `COc1ccc2c(c1)sc1nc(C(=O)Nc3ccc(=O)n(C)n3)cn12` [10-methoxy-N-(1-methyl-6-oxo-1,6-dihydropyridazin-3-yl)-7-thia-2,5-diazatricyclo[6.4.0.0^2,6]dodeca-1(12),3,5,8,10-pentaene-4-carboxamide] gave an IC50 below 100 nM. The “visibility of mHTT aggregates in brain sections” value with mHTT aggregates is recorded as “mHTT aggregates are visible”.

The compound `COc1ccc2c(c1)sc1nc(C(=O)Nc3ccc(-n4ccnc4)nc3)cn12` [N-[6-(1H-imidazol-1-yl)pyridin-3-yl]-10-methoxy-7-thia-2,5-diazatricyclo[6.4.0.0^2,6]dodeca-1(12),3,5,8,10-pentaene-4-carboxamide] had a half-inhibitory concentration (IC50) on Q46 protein aggregates below 100 nM.

Take `COCCOc1ccc(NC(=O)c2ccn3c(n2)nc2ccccc23)cn1` [N-[6-(2-methoxyethoxy)pyridin-3-yl]-1,8,10-triazatricyclo[7.4.0.0^2,7]trideca-2(7),3,5,8,10,12-hexaene-11-carboxamide]: the IC50 on Q46 protein aggregates is below 100 nM.

On to `CNC(=O)c1ccc(NC(=O)c2ccn3c(n2)nc2ccccc23)cn1` [N-[6-(methylcarbamoyl)pyridin-3-yl]-1,8,10-triazatricyclo[7.4.0.0^2,7]trideca-2(7),3,5,8,10,12-hexaene-11-carboxamide], for which the IC50 on Q46 protein aggregates is below 100 nM.

In the case of `CN(C)c1ccc(/C=C/c2nc3ccc(I)cc3[nH]2)cc1` [SBIM-3, 4-[(E)-2-(6-iodo-1H-benzimidazol-2-yl)ethenyl]-N,N-dimethylaniline], in data set [1], the “binding to NFT in sections of AD brain tissue” value is listed as “bound NFT”. In addition, the “ratio of Kd values (affinity for tau aggregates vs Aβ1-42 aggregates)” value in data set [2] is 2.73.

For `[11CH3]Oc1ccc2c(c1)sc1nc(C(=O)Nc3cccnc3)cn12` [^11C-labeled Compound 1 of Method 1, 10-[^11C]-methoxy-N-(pyridin-3-yl)-7-thia-2,5-diazatricyclo[6.4.0.0^2,6]dodeca-1(12),3,5,8,10-pentaene-4-carboxamide], the “% SUV” value in data set [3] (Cerebellum, WT mice (n = 7)) was 74.1 ± 7.1 % SUV; in data set [3] (Cerebellum, het zQ175 mice (n = 6)), 80.5 ± 6.5 % SUV; in data set [3] (Cerebellum, hom zQ175 mice (n = 8)), 92.3 ± 11.3 % SUV; in data set [3] (Cortex, WT mice (n = 7)), 67.1 ± 5.7 % SUV; in data set [3] (Cortex, het zQ175 mice (n = 6)), 73.4 ± 5.1 % SUV; in data set [3] (Cortex, hom zQ175 mice (n = 8)), 93.1 ± 9.6 % SUV. The “% SUV” value is 73.3 ± 6.5 % SUV in data set [3] (Hippocampus, WT mice (n = 7)); 82.0 ± 6.3 % SUV in data set [3] (Hippocampus, het zQ175 mice (n = 6)); 107.1 ± 10.8 % SUV in data set [3] (Hippocampus, hom zQ175 mice (n = 8)); 71.9 ± 6.7 % SUV in data set [3] (Striatum, WT mice (n = 7)); 82.7 ± 7.0 % SUV in data set [3] (Striatum, het zQ175 mice (n = 6)); 107.6 ± 9.6 % SUV in data set [3] (Striatum, hom zQ175 mice (n = 8)). In addition, the “binding of the radioligand relative to wild type” value in data set [3] (all four brain regions, mice homozygous for the zQ175 allele) was “Increased binding of the radioligand, relative to wild type”.
